Data published in article PMC5944028, “Nonclinical and clinical pharmacological characterization of the potent and selective cathepsin K inhibitor MIV-711” (Journal of Translational Medicine, 2018).

Tests used:
[1] = system: differentiated human osteoclasts; set-up: method as in PMID 20097319; conditions: bovine bone slices; read-out: IC50 in bone resorption assay; cited from earlier work
guinea pig cathepsin K = assay: Recombinant enzyme assay, guinea pig cathepsin K; assay type: biochemical; conditions: geometric mean
Text: (§1) Recombinant cathepsin K enzymes from all species were expressed in E. coli, purified and activated. Human cathepsin F and cathepsin S were expressed in Baculovirus, purified and activated. Purified human cathepsins B and H (Athens Research Technology), cathepsin L (Calbiochem), and cathepsin V (R & D Systems) were purchased.
(§2) H-D-Ala_Leu-Lys-AMC was used as the substrate in assays of cathepsin K from non-rodent species (human, dog, rabbit and guinea pig), and Z-Leu-Arg-AMC was used as the substrate in assays of cathepsin K from rodent species (mouse and rat). […]
(§3) Assays were carried out in white polystyrene 96-well plates in a final volume of 100 µL. […] Plates were read in a Fluoroskan Ascent (Thermo Labsystems, Helsinki, Finland) in kinetic mode, with excitation and emission filters of 390 and 460 nm, respectively. Rates were determined by linear regression of the fluorescence/time data in Excel. Rates were fitted by non-linear regression to either the competitive inhibition equation, with the substrate concentration fixed at the value in the assay and the KM fixed to the value previously determined, or the IC50 equation using GraphPad Prism (GraphPad, version 6, San Diego, USA) to obtain Ki or IC50 values, respectively.

human cathepsin K = target: T1, human cathepsin K (Homo sapiens, UniProt P43235); assay: Kinetics of inhibition by progress curve analysis; assay type: biochemical
T1 construct: made in house; host or cells: E. coli
T1 sequence (P43235 115-329): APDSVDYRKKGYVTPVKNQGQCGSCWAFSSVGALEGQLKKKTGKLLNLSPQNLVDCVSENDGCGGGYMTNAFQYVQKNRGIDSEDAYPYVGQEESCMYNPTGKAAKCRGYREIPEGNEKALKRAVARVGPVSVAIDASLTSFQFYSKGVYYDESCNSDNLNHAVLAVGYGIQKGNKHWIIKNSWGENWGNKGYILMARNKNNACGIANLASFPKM
Experimental: The kinetics of MIV-711 inhibition of human recombinant cathepsin K were measured by progress curve analysis. Briefly, 100 µmol/L substrate and 0.5 nmol/L cathepsin K were combined in 0.5 mL of buffer in a quartz cuvette and the fluorescence measured continuously in a spectrofluorometer (Hitachi F-4500, Hitachi Scientific Instruments, Woking, UK). Excitation wavelength was 385 nm and emission wavelength was 460 nm and slits were 5 and 10 nm for excitation and emission, respectively. PMT voltage was 700 V and the response time was 0.01 s. Once a linear rate was established, 5 µL MIV-711 (final assay concentration between 10 and 50 nmol/L) or 5 µL DMSO control was added and data collected until a new equilibrium rate was achieved. Data were imported into GraphPad Prism and then fitted to the Morrison equation [26] to obtain kobs. The kobs values were plotted against the inhibitor concentration and fitted to a straight line to obtain kon and koff.

plasma CTX-I = assay: Monkey plasma CTX-I, single oral dose; assay type: in vivo, cynomolgus monkeys (Macaca fascicularis)
Experimental: Eight cynomolgus monkeys (Macaca fascicularis) were used for measuring plasma levels of MIV-711 and CTX-I after a single dose. The animals were healthy young males, approximately 2–4 years old and weighing 3–4 kg. Experiments were performed at Covance Ltd (Harrogate, UK). The monkeys were used over an extended period of time (up to a year) and several cathepsin K inhibitors were evaluated during this time. At least 1 week was allowed for washout in between experiments. This was not believed to affect the results with MIV-711, and vehicle controls were run on a regular basis when appropriate. Each animal received at least one dose of MIV-711 and one dose of vehicle with at least 1 week of washout in between treatments.
In single dose experiments, animals were dosed with vehicle or MIV-711 (3–30 µmol/kg) via oral gavage at a dose volume of 4 mL/kg between 7:30 and 9:00 a.m. Blood samples were collected at baseline, 30 min, 1, 2, 4, 8, 12, 24 and 48 h after dose from the femoral vein and transferred into lithium heparin anticoagulant tubes. The samples were centrifuged and the two aliquots of the resultant plasma were frozen at − 70 °C. All samples were processed and stored within 30 min of collection. The aliquots were used to determine the MIV-711 concentration and CTX-I levels, respectively. [drawing 1]
Since the concentration of MIV-711 was measured in each animal it was possible to relate the MIV-711 exposure over 24 h to the % CTX-I inhibition over 24 h in each animal.
The quantification of CTX-I in monkey plasma samples and human serum samples was performed using a commercially available kit (Serum CrossLaps ELISA, IDS Nordic, Herlev, Denmark). The levels of CTX-I in monkey urine samples were measured using a commercially available kit (Urine BETA CrossLaps ELISA, IDS Nordic). The quantification of NTX-I in monkey samples was performed using a commercially available kit (Osteomark NTx Urine, Wampole Laboratories, Inc, Princeton, USA). Urinary levels of CTX-II in monkey samples were measured using a commercially available kit (Urine CrossLaps EIA, IDS Nordic). The concentrations of biomarkers in the urine samples were corrected for creatinine concentrations. The creatinine levels in urine were determined at Swedish University of Agricultural Sciences, using the enzymatic assay (cat no. 8L24-01) on the Abbott system Architect c4000.

human cathepsin L = target: T2, human cathepsin L (Homo sapiens, UniProt P07711); assay: Enzyme assay, human cathepsin L; assay type: biochemical; conditions: geometric mean
T2 construct: purchased Calbiochem
T2 sequence (P07711 114-333): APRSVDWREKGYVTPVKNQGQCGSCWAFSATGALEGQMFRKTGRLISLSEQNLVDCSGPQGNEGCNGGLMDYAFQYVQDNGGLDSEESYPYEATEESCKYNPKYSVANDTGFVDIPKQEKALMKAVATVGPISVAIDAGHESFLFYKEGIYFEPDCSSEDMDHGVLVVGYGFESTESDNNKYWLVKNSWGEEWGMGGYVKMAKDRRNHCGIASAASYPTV
Text: as §1, §2, §3

C#C[C@@H]1CN(C(=O)[C@H](CC(C)C)NC(=O)c2ccc(-c3nc(N4CCN(C)CC4)sc3F)cc2)[C@@H]2C(=O)CO[C@H]12 [MIV-711]
IC50 [1]: 37 nM
Ki (guinea pig cathepsin K): 9.8 nM
residence time (human cathepsin K; from koff): about 90 s
Ki (human cathepsin K; from kon and koff experiments, read-out: Ki from kinetic experiments): 1.7 nM
koff rate (human cathepsin K; human cathepsin K): 0.008 s⁻¹
kon rate (human cathepsin K; human cathepsin K): 4.6e+06 M⁻¹ s⁻¹
Effect on plasma CTX-I versus vehicle (plasma CTX-I; 3 µmol/kg p.o. (p > 0.05)): did not differ significantly vs. vehicle
Effect on plasma CTX-I versus vehicle (plasma CTX-I; 10 µmol/kg p.o., between 8 and 24 h post-dose (p < 0.05)): statistically significant versus vehicle
Exposure required for 50% reduction of CTX-I at 24 h post dose (plasma CTX-I; AUC0–24h): 1.5 µmol/L/h
Reduction of plasma CTX-I compared to baseline (plasma CTX-I; highest dose (30 µmol/kg p.o.), 24 h post-dose): 57%
Ki (human cathepsin L): 1700 nM
